pIC50: −log10 of the molar value.
molecular target: T1, Recombinant human renin (Homo sapiens, UniProt P00797); assay: Inhibitory activity against human renin (fluorogenic peptide substrate); type: biochemical; conditions: 50% inhibitory concentration (IC50) against human renin, 37° C. for 1 hour
T1 sequence (P00797 67-406): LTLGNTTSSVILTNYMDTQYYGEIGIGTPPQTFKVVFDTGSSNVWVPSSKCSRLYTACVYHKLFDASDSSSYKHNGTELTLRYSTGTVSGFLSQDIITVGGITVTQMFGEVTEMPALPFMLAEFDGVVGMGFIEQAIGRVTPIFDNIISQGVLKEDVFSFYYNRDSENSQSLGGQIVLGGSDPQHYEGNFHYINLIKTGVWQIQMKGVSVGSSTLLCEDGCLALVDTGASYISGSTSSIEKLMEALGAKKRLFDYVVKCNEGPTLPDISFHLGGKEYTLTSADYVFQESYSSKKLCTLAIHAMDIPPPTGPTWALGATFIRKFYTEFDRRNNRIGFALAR

Row | Compound | pIC50
1 | COC(=O)NCCCn1nc([C@@H](C)N(C(=O)[C@H]2CNCCO2)C2CC2)cc1-c1ncccc1F [Example 185] | 9.52
2 | COC(=O)NCCCn1nc([C@@H](C)N(C(=O)[C@H]2CNCCO2)C2CC2)cc1-c1cccnc1 [Example 186] | 9.40
3 | COC(=O)NCCCn1nc([C@@H](C)N(C(=O)[C@H]2CNCCO2)C2CC2)cc1-c1ncccc1C [Example 187] | 9.30
4 | COC(=O)NCCCn1nc([C@@H](C)N(C(=O)[C@H]2CNCCO2)C2CC2)cc1C(C)C [Example 188] | 9.30
5 | COC(=O)NCCCn1nc([C@@H](C)N(C(=O)[C@H]2CNCCO2)C2CC2)c2c1CCCC2 [Example 189] | 9.05
6 | COC(=O)NCCCn1nc([C@@H](C)N(C(=O)[C@H]2CNCCO2)C2CC2)c2c1CCC2 [Example 190] | 8.92
7 | COC(=O)NCCCn1nc([C@@H](C)N(C(=O)[C@H]2CNCCO2)C2CC2)cc1C(C)(C)C [Example 191] | 9.15
8 | COC(=O)NCCCn1nc([C@@H](C)N(C(=O)[C@H]2CNCCO2)C2CC2)c(F)c1-c1ccccc1 [Example 192] | 9.70
9 | COC(=O)NCC(F)Cn1nc([C@@H](C)N(C(=O)[C@H]2CNCCO2)C2CC2)cc1-c1ccccc1 (some centres unmarked) [Example 193] | 9.40
10 | C[C@H](c1cn(Cc2ccccc2)c(-c2ccccc2)n1)N(C(=O)[C@H]1CNCCO1)C1CC1 [Example 194] | 8.52
11 | COc1cccc(Cn2cc([C@@H](C)N(C(=O)[C@H]3CNCCO3)C3CC3)nc2-c2ccccc2)c1 [Example 195] | 8.44
12 | CCc1nc([C@@H](C)N(C(=O)[C@H]2CNC[C@@H](COC)O2)C2CC2)cc2c1ccn2CCCOC [Example 196] | 9.15
13 | COC(=O)NCCCc1cc([C@@H](C)N(C(=O)[C@H]2CNCCO2)C2CC2)sc1-c1ccccc1 [Example 197] | 9.70
14 | COC(=O)NCC(F)Cn1nc([C@@H](C)N(C(=O)[C@H]2CNCCO2)C2CC2)cc1-c1ccccc1 (some centres unmarked) [Example 198] | 9.70
15 | COC(=O)NCC(F)Cn1nc([C@@H](C)N(C(=O)[C@H]2CNCCO2)C2CC2)cc1-c1ccccc1 (some centres unmarked) [Example 199] | 9.70
16 | CCCCCn1cc([C@@H](C)N(C(=O)[C@H]2CNCCO2)C2CC2)nc1-c1ccccc1 [Example 200] | 8.35
17 | COC[C@@H]1CNC[C@H](C(=O)N(C2CC2)[C@H](C)c2cc(OC)c3ccccc3n2)O1 [Example 201] | 8.39
18 | COC(=O)NCCCn1cc([C@@H](C)N(C(=O)[C@H]2CNC[C@@H](C)O2)C2CC2)nc1-c1ccccc1 [Example 202] | 9.70
19 | COC(=O)NCCCn1cc([C@@H](C)N(C(=O)[C@H]2CNC[C@@H](C(F)(F)F)O2)C2CC2)nc1-c1ccccc1 [Example 203] | 9.30
20 | COc1ccc(Cn2cc([C@@H](C)N(C(=O)[C@H]3CNCCO3)C3CC3)nc2-c2ccccc2)cc1 [Example 204] | 8.15
21 | COCCCCn1nc([C@@H](C)N(C(=O)[C@H]2CNCCO2)C2CC2)cc1-c1ccccn1 [Example 205] | 8.85
22 | COC(=O)NCCCc1sc([C@@H](C)N(C(=O)[C@H]2CNCCO2)C2CC2)nc1-c1ccccc1 [Example 206] | 8.82
23 | C[C@H](c1cn(Cc2cccc(OC(F)(F)F)c2)c(-c2ccccc2)n1)N(C(=O)[C@H]1CNCCO1)C1CC1 [Example 207] | 8.16

Row | Compound | pIC50
24 | COC(=O)NCCOc1cc([C@@H](C)N(C(=O)[C@H]2CNCCO2)C2CC2)nn1-c1ccccc1 [Example 208] | 8.64
25 | CCn1nc([C@@H](C)N(C(=O)[C@H]2CNCCO2)C2CC2)cc1CCCNC(=O)OC [Example 209] | 8.68
26 | COC(=O)NCCCc1cc([C@@H](C)N(C(=O)[C@H]2CNCCO2)C2CC2)nn1C1CCCCC1 [Example 210] | 9.70
27 | COC(=O)NCCCc1cc([C@@H](C)N(C(=O)[C@H]2CNCCO2)C2CC2)nn1-c1ccccc1F [Example 211] | 9.30
28 | CCc1cc([C@@H](C)N(C(=O)[C@H]2CNCCO2)C2CC2)nc2ccccc12 [Example 212] | 8.34
29 | COC(=O)NCCCc1cc([C@@H](C)N(C(=O)[C@H]2CNCCO2)C2CC2)nn1C(C)(C)C [Example 213] | 9.52
30 | C[C@H](c1cn(Cc2cccc(F)c2)c(-c2ccccc2)n1)N(C(=O)[C@H]1CNCCO1)C1CC1 [Example 214] | 8.55
31 | COC(=O)NCCCn1cc([C@@H](C)N(C(=O)[C@H]2CNCCO2)C2CC2)nc1C(C)(C)C [Example 215] | 9.30
32 | COC(=O)NCCCn1nc([C@@H](C)N(C(=O)[C@H]2CNCCO2)C2CC2)c(F)c1-c1ccccn1 [Example 216] | 10.00
33 | CCc1c([C@@H](C)N(C(=O)[C@H]2CNCCO2)C2CC2)nn(CCCNC(=O)OC)c1-c1ccccn1 [Example 217] | 8.82
34 | COC(=O)NCCCc1nc([C@@H](C)N(C(=O)[C@H]2CNCCO2)C2CC2)sc1-c1ccccc1 [Example 218] | 8.96
35 | COC(=O)NCCCn1cc([C@@H](C)N(C(=O)[C@H]2CNC[C@@H](C(F)(F)F)O2)C2CC2)nc1-c1ccccc1 [Example 219] | 9.40
36 | COC(=O)NCCCn1nc([C@@H](C)N(C(=O)[C@H]2CNCCO2)C2CC2)c(C)c1-c1ccccn1 [Example 220] | 9.40
37 | COC(=O)NCCCc1cc([C@@H](C)N(C(=O)[C@H]2CNCCO2)C2CC2)nn1-c1ccc(F)cc1 [Example 221] | 9.52
38 | COC(=O)NCCCc1cc([C@@H](C)N(C(=O)[C@H]2CNCCO2)C2CC2)nn1-c1ccccc1C [Example 222] | 9.30
39 | COC(=O)NCCCn1nc([C@@H](C)N(C(=O)[C@H]2CNCCO2)C2CC2)cc1-c1ncc(C)cc1F [Example 223] | 9.40
40 | COC(=O)NCCCc1csc([C@@H](C)N(C(=O)[C@H]2CNCCO2)C2CC2)c1 [Example 224] | 8.51
41 | COC(=O)NCCCc1cc([C@@H](C)N(C(=O)[C@H]2CNCCO2)C2CC2)nn1C(C)C [Example 225] | 9.30
42 | COC(=O)NCCCc1cc([C@@H](C)N(C(=O)[C@H]2CNCCO2)C2CC2)sc1-c1cccc(C)n1 [Example 226] | 9.52
43 | COC(=O)NCCCc1cc([C@@H](C)N(C(=O)[C@H]2CNCCO2)C2CC2)sc1-c1ccccn1 [Example 227] | 9.70
44 | COC(=O)NCCCc1cc([C@@H](C)N(C(=O)[C@H]2CNCCO2)C2CC2)sc1-c1ccc(C)nc1 [Example 228] | 9.40
45 | COC(=O)NCCCc1cc([C@@H](C)N(C(=O)[C@H]2CNCCO2)C2CC2)sc1-c1ccccc1F [Example 229] | 9.30
46 | COC(=O)NCCCn1cc([C@@H](C)N(C(=O)[C@H]2CNC[C@@H](C)O2)C2CC2)nc1-c1ccccc1 [Example 230] | 9.30

Row | Compound | pIC50
47 | COC(=O)NCCCc1cc([C@@H](C)N(C(=O)[C@H]2CNCCO2)C2CC2)nn1-c1ccc(C)cc1 [Example 231] | 8.92
48 | COCCCCc1cc([C@@H](C)N(C(=O)[C@H]2CNCCO2)C2CC2)nn1-c1ccccc1 [Example 232] | 9.22
49 | COC(=O)NCCCn1nc([C@@H](C)N(C(=O)[C@H]2CNCCO2)C2CC2)c2c1C(C)(C)CC2 [Example 233] | 9.52
50 | COC(=O)NCCCn1nc([C@@H](C)N(C(=O)[C@H]2CNCCO2)C2CC2)c(C)c1-c1ncccc1F [Example 234] | 9.40
51 | COC(=O)NCCCc1cc([C@@H](C)N(C(=O)[C@H]2CNCCO2)C2CC2)sc1-c1ccc(F)cn1 [Example 235] | 10.00
52 | COC(=O)NCCCc1cc([C@@H](C)N(C(=O)[C@H]2CNCCO2)C2CC2)sc1-c1ncccc1C [Example 236] | 9.70
53 | CCOc1cc([C@@H](C)N(C(=O)[C@H]2CNCCO2)C2CC2)cc(CCCNC(=O)OC)n1 [Example 237] | 9.30
54 | COC(=O)NCCCc1cc([C@@H](C)N(C(=O)[C@H]2CNC[C@@H](C)O2)C2CC2)cc(OC)n1 [Example 238] | 9.22
55 | COC(=O)NCCCn1nc([C@@H](C)N(C(=O)[C@H]2CNC[C@@H](C(F)(F)F)O2)C2CC2)c2ccc(C)nc21 [Example 239] | 8.51
56 | COC(=O)NCCCc1cc([C@@H](C)N(C(=O)[C@H]2CNCCO2)C2CC2)sc1-c1cnn(C)c1 [Example 240] | 9.70
57 | COC(=O)NCCCc1cc([C@@H](C)N(C(=O)[C@H]2CNCCO2)C2CC2)sc1-c1cncnc1 [Example 242] | 9.10
58 | COC(=O)NCCCc1cc([C@@H](C)N(C(=O)[C@H]2CNCCO2)C2CC2)nn1-c1ccccc1OC [Example 243] | 9.15
59 | COC(=O)NCCCc1c(F)c([C@@H](C)N(C(=O)[C@H]2CNCCO2)C2CC2)nn1-c1ccccc1 [Example 244] | 9.00
60 | COC(=O)NCCCn1cc([C@@H](C)N(C(=O)[C@H]2CNC[C@@H](C)O2)C2CC2)nc1C(C)C [Example 245] | 9.52
61 | COC(=O)NCCCc1cc([C@@H](C)N(C(=O)[C@H]2CNCCO2)C2CC2)sc1C(F)(F)F [Example 246] | 9.40
62 | COC(=O)NCCCn1nc([C@@H](C)N(C(=O)[C@H]2CNCCO2)C2CC2)nc1-c1ccc(C)cc1 [Example 247] | 8.89
63 | COC(=O)NCCCn1nc([C@@H](C)N(C(=O)[C@H]2CNCCO2)C2CC2)nc1-c1ccccc1C [Example 248] | 9.05
64 | COC(=O)NCCCn1nc([C@@H](C)N(C(=O)[C@H]2CN[C@@H](C)CO2)C2CC2)c2ccc(C)nc21 [Example 249] | 9.30
65 | COC(=O)NCCCn1nc([C@@H](C)N(C(=O)[C@H]2CNC[C@@H](C)O2)C2CC2)c2ccc(C)nc21 [Example 250] | 9.52
66 | CCOc1ncc([C@@H](C)N(C(=O)[C@H]2CNCCO2)C2CC2)cc1CCCNC(=O)OC [Example 251] | 9.10
67 | COC(=O)NCCCn1cc([C@@H](C)N(C(=O)[C@H]2CNC[C@@H](C(F)(F)F)O2)C2CC2)c2ncccc21 [Example 252] | 8.19
68 | COC(=O)NCCCn1nc([C@@H](C)N(C(=O)[C@H]2CNC[C@@H](C(=O)NCc3ccccc3)O2)C2CC2)c2ccc(C)nc21 [Example 253] | 9.40

From patent US9556159B2, “Renin inhibitor” (MITSUBISHI TANABE PHARMA CORPORATION, priority 2012, dated 2017)
